The subject of experiment [1] is Cullin-3 (CUL3) neddylation. Briefly: AlphaLISA assay for Cullin-3 (CUL3) neddylation in TF 1 cells. The class given is cell-based. Particulars: 3 hours treatment. In short, it runs like this:
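Neddylated CUL3 was quantified by AlphaLISA in lysates of TF 1 cells exposed for 3 h to test compound in IMDM without supplements. Percent inhibition set between vehicle and 1 μM DI-1548 positive control; IC50 derived by Hill-equation fitting of dose-response curves.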
(In general: Alpha assays give light when donor and acceptor beads are brought close together.)

For experiment [2], the target named is DCN1 (DCUND1) protein PONY domain (Homo sapiens (Human), UniProt Q96GG9). The experiment in a line: TR-FRET assay, DCN1 binding with FAM-labeled probe. In a few lines: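 First, the E. coli-derived PONY domain was biotinylated and paired with streptavidin Tb cryptate. Compounds in 0.1% DMSO were then added to DCN1 and FAM-probe (5 nM/20 nM, or 0.31 nM/900 nM total with 800 nM unlabelled) in TritonX, 200 mM NaCl buffer. Finally, TR-FRET ratios were recorded at 1, 5 and 24 hrs.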
Sequence of DCN1 (DCUND1) protein PONY domain (Q96GG9 60-248): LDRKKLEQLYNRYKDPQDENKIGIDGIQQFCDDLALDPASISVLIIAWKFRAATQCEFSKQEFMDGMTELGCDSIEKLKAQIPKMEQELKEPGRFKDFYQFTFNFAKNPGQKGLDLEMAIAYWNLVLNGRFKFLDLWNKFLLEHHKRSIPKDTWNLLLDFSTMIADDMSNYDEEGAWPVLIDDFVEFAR

The target in a further experiment is DCN1 protein (Homo sapiens (Human), UniProt Q96GG9). Briefly: Intact Protein MS Analysis with the RapidFire-TOF System (covalent adduct formation). The class given is binding. Particulars: MS Emax; 400 nM DCN1, 3 hours at room temperature. In a few lines: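 Tag-cleaved human DCN1 (400 nM) expressed in E. coli, in 25 mM Tris-HCl, 200 mM NaCl, 1 mM DTT, was incubated with 11 compound concentrations for 3 h at room temperature and quenched with 0.2% formic acid. Intact-protein Q-TOF MS with deconvolution detected the compound adduct mass.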
Sequence of DCN1 protein (Q96GG9 whole entry): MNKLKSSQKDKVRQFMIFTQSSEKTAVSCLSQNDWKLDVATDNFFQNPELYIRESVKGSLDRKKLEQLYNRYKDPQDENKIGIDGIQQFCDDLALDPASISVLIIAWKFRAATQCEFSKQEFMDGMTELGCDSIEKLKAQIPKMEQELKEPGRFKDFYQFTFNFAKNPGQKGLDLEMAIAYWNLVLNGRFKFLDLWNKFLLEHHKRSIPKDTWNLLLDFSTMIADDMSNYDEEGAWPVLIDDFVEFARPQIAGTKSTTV

Setting [3] is: 24 hr after treatment with compound, read-out: TR FRET IC50 24 hr.
Where [4] appears, read: read-out: TR FRET IC50 1 hr, 1 hr after treatment with compound.
Where [5] appears, read: TR FRET IC50 1 hr (nM), 1 hr after treatment with compound.

Structures are written as SMILES. Read-outs that look alike come from different tables or passages of the source.

Take `C=C(CN1C[C@@H]2C[C@H]1CO2)C(=O)NCc1nn(-c2ccccc2)c2c1[C@H](c1ccc(F)cc1)[C@H](NC(=O)c1cccc(C(F)(F)F)c1)C(=O)N2CC` (mixture of isomers) [Compound I-12]: the IC50 was no more than 0.1 µM in experiment [1] (Homo sapiens, TF-1, 3 h); no more than 200 nM in experiment [2] (setting [3]); no more than 200 nM in experiment [2] (setting [4]). In addition, on DCN1 protein, the “% Adduct Formation” value was “+++ (MS Emax % adduct formation greater than 80.0 and less than or equal to 100.0)”.

With `CCN1C(=O)[C@@H](NC(=O)c2cccc(C(F)(F)F)c2)[C@@H](c2ccc(F)cc2)c2c([C@@H](CN(C)C)NC#N)nn(-c3ccccc3)c21` (mixture of isomers) [Compound I-272], the IC50 in experiment [1] (Homo sapiens, TF-1, 3 h) is no more than 0.1 µM; in experiment [2] (setting [3]), no more than 200 nM; in experiment [2] (setting [4]), no more than 200 nM. Further, the “% Adduct Formation” value at DCN1 protein is “+++ (MS Emax % adduct formation greater than 80.0 and less than or equal to 100.0)”.

On to `CCN1C(=O)[C@@H](NC(=O)c2cccc(C(F)(F)F)c2)[C@@H](c2ccc(F)cc2)c2c(C(=O)N3CCOC[C@H]3C#N)nn(-c3ccccc3)c21` (mixture of isomers) [Compound I-295], for which the IC50 in experiment [1] was no more than 0.1 µM; in experiment [2] (setting [3]), no more than 200 nM; in experiment [2] (setting [5]), 1000 to 3000 nM. Besides, at DCN1 protein, the “% Adduct Formation” value was “+++ (MS Emax % adduct formation greater than 80.0 and less than or equal to 100.0)”.

Take `CCN1C(=O)[C@@H](NC(=O)c2cccc(C(F)(F)F)c2)[C@@H](c2ccc(F)cc2)c2c(C(=O)N3CCOC[C@@H]3C#N)nn(-c3ccccc3)c21` (mixture of isomers) [Compound I-297]: the 50% inhibitory concentration (IC50) in experiment [1] (Homo sapiens, TF-1, 3 h) is no more than 0.1 µM; in experiment [2] (setting [3]), no more than 200 nM; in experiment [2] (setting [5]), 1000 to 3000 nM. The “% Adduct Formation” value on DCN1 protein is “+++ (MS Emax % adduct formation greater than 80.0 and less than or equal to 100.0)”.

As for `CCN1C(=O)[C@@H](NC(=O)c2cccc(C(F)(F)F)c2)[C@@H](c2ccc(F)cc2)c2c(C(=O)N(C)[C@@H](C#N)CCN3CC4CCC(C3)O4)nn(-c3ccccc3)c21` (mixture of isomers) [Compound I-319], the IC50 in experiment [1] (Homo sapiens, TF-1, 3 h) was no more than 0.1 µM; in experiment [2] (setting [3]), no more than 200 nM; in experiment [2] (setting [5]) it was 1000 to 3000 nM. Moreover, the “% Adduct Formation” value at DCN1 protein was “++ (MS Emax % adduct formation greater than 30.0 and less than or equal to 80.0)”.

Turning to `CCN1C(=O)[C@@H](NC(=O)c2cccc(C(F)(F)F)c2)[C@@H](c2ccc(F)cc2)c2c(C(=O)N(CC#N)CCN3CC4CC(C3)O4)nn(-c3ccccc3)c21` (mixture of isomers) [Compound I-322], the IC50 in experiment [1] (Homo sapiens, TF-1, 3 h) was no more than 0.1 µM; in experiment [2] (setting [3]), no more than 200 nM; in experiment [2] (setting [4]), no more than 200 nM. Further, the “% Adduct Formation” value on DCN1 protein is “+++ (MS Emax % adduct formation greater than 80.0 and less than or equal to 100.0)”.

Take `CCN1C(=O)[C@@H](NC(=O)c2cccc(C(F)(F)F)c2)[C@@H](c2ccc(F)cc2)c2c(C(=O)N(CC#N)CCN3CC4CCC(C3)O4)nn(-c3ccccc3)c21` (mixture of isomers) [Compound I-324]: the IC50 in experiment [1] (Homo sapiens, TF-1, 3 h) is no more than 0.1 µM; in experiment [2] (setting [3]), no more than 200 nM; in experiment [2] (setting [5]), 200 to 1000 nM. For the same compound, at DCN1 protein, the “% Adduct Formation” value was “+++ (MS Emax % adduct formation greater than 80.0 and less than or equal to 100.0)”.

On to `CCN1C(=O)[C@@H](NC(=O)c2cccc(C(F)(F)F)c2)[C@@H](C2CC2)c2c(C(=O)N(C)C(C)C#N)nn(C3CCOCC3)c21` (mixture of isomers) [Compound I-349], for which the IC50 in experiment [1] (Homo sapiens, TF-1, 3 h) is no more than 0.1 µM; in experiment [2] (setting [3]) it was no more than 200 nM; in experiment [2] (setting [4]), no more than 200 nM. Further, the “% Adduct Formation” value on DCN1 protein was “+++ (MS Emax % adduct formation greater than 80.0 and less than or equal to 100.0)”.

For `N#C[C@@H]1C[C@H]2C[C@H]2N1C(=O)c1nn(C2CCOCC2)c2c1[C@H](C1CC1)[C@H](NC(=O)c1cccc(C(F)(F)F)c1)C(=O)N2` (mixture of isomers) [Compound I-385], the IC50 in experiment [1] (Homo sapiens, TF-1, 3 h) is no more than 0.1 µM; in experiment [2] (setting [3]), no more than 200 nM; in experiment [2] (setting [5]) it was 1000 to 3000 nM. Further, the “% Adduct Formation” value on DCN1 protein was “+++ (MS Emax % adduct formation greater than 80.0 and less than or equal to 100.0)”.

`C=C(CN1CCN(C2COC2)CC1)C(=O)NCc1nn(-c2ccccc2)c2c1[C@H](c1ccc(F)cc1)[C@H](NC(=O)c1cccc(C(F)(F)F)c1)C(=O)N2CC` (racemic) [Compound I-57]: the IC50 was no more than 0.1 µM in experiment [1] (Homo sapiens, TF-1, 3 h); no more than 200 nM in experiment [2] (setting [3]); no more than 200 nM in experiment [2] (setting [4]). Besides, the “% Adduct Formation” value at DCN1 protein is “++ (MS Emax % adduct formation greater than 30.0 and less than or equal to 80.0)”.

`C=C(CN1CCOCC1)C(=O)NCc1nn(-c2ccccc2)c2c1[C@H](c1ccc(F)cc1)[C@H](NC(=O)c1cccc(C(F)(F)F)c1)C(=O)N2CC` (racemic) [Compound I-67]: the IC50 in experiment [1] (Homo sapiens, TF-1, 3 h) is 0.1 to 1 µM; in experiment [2] (setting [3]), no more than 200 nM; in experiment [2] (setting [4]), no more than 200 nM. Moreover, the “% Adduct Formation” value on DCN1 protein was “+ (MS Emax % adduct formation greater than or equal to 0.0 and less than or equal to 30.0)”.

For the compound `CCN1C(=O)[C@@H](NC(=O)c2cccc(C(F)(F)F)c2)[C@@H](c2ccc(F)cc2)c2c(NC(=O)CC#N)nn(-c3ccccc3)c21` (racemic) [Compound I-80], the IC50 in experiment [1] (Homo sapiens, TF-1, 3 h) is no more than 0.1 µM; in experiment [2] (setting [3]), 1000 to 3000 nM; in experiment [2] (setting [5]), 1000 to 3000 nM. For the same compound, the “% Adduct Formation” value on DCN1 protein was “+ (MS Emax % adduct formation greater than or equal to 0.0 and less than or equal to 30.0)”.

Consider `CC#CC(=O)N(C)Cc1nn(-c2ccccc2)c2c1[C@H](c1ccc(F)cc1)[C@H](NC(=O)c1cccc(C(F)(F)F)c1)C(=O)N2CC` (racemic) [Compound I-90], for which the IC50 in experiment [2] (setting [3]) and in experiment [2] (setting [4]) was greater than 3000 nM throughout. Moreover, at DCN1 protein, the “% Adduct Formation” value is “+ (MS Emax % adduct formation greater than or equal to 0.0 and less than or equal to 30.0)”.

For `CCN1C(=O)[C@@H](NC(=O)c2cccc(C(F)(F)F)c2)[C@@H](c2ccc(F)cc2)c2c(C#N)nn(-c3ccccc3)c21` (racemic) [Compound I-115, rac-N-((4R,5R)-3-cyano-7-ethyl-4-(4-fluorophenyl)-6-oxo-1-phenyl-4,5,6,7-tetrahydro-1H-pyrazolo[3,4-b]pyridine-5-yl)-3-(trifluoromethyl)benzamide], the IC50 in experiment [2] (setting [3]) and in experiment [2] (setting [5]) was greater than 3000 nM throughout. Further, at DCN1 protein, the “% Adduct Formation” value was “+ (MS Emax % adduct formation greater than or equal to 0.0 and less than or equal to 30.0)”.

`C/C=C/C(=O)NCc1nn(-c2ccccc2)c2c1[C@H](c1ccc(F)cc1)[C@H](NC(=O)c1cccc(C(F)(F)F)c1)C(=O)N2CC` (racemic) [Compound I-123]: the IC50 in experiment [2] (setting [3]) and in experiment [2] (setting [5]) was 200 to 1000 nM each time. Besides, on DCN1 protein, the “% Adduct Formation” value was “+ (MS Emax % adduct formation greater than or equal to 0.0 and less than or equal to 30.0)”.

`CCN1C(=O)[C@@H](NC(=O)c2cccc(C(F)(F)F)c2)[C@@H](c2ccc(F)cc2)c2c(C/C=C/C(=O)OC)nn(-c3ccccc3)c21` (racemic) [Compound I-131, rac-methyl (E)-4-((4R,5R)-7-ethyl-4-(4-fluorophenyl)-6-oxo-1-phenyl-5-(3-(trifluoromethyl)benzamido)-4,5,6,7-tetrahydro-1H-pyrazolo[3,4-b]pyridin-3-yl)but-2-enoate]: the figures for the IC50 in experiment [2] (setting [3]) and in experiment [2] (setting [5]) were 200 to 1000 nM and 1000 to 3000 nM, respectively. For the same compound, on DCN1 protein, the “% Adduct Formation” value was “+ (MS Emax % adduct formation greater than or equal to 0.0 and less than or equal to 30.0)”.

On to `C=C(C)C(=O)N(C)Cc1nn(-c2ccccc2)c2c1[C@H](c1ccc(F)cc1)[C@H](NC(=O)c1cccc(C(F)(F)F)c1)C(=O)N2CC` (racemic) [Compound I-156], for which the IC50 in experiment [2] (setting [3]) and in experiment [2] (setting [5]) was 200 to 1000 nM in each case. Besides, the “% Adduct Formation” value at DCN1 protein was “+ (MS Emax % adduct formation greater than or equal to 0.0 and less than or equal to 30.0)”.

With `CCN1C(=O)[C@@H](NC(=O)c2cccc(C(F)(F)F)c2)[C@@H](c2ccc(F)cc2)c2c(NS(=O)(=O)CCl)nn(-c3ccccc3)c21` (racemic) [Compound I-163], the IC50 in experiment [2] (setting [3]) and in experiment [2] (setting [4]) was no more than 200 nM each time. Further, the “% Adduct Formation” value at DCN1 protein is “+ (MS Emax % adduct formation greater than or equal to 0.0 and less than or equal to 30.0)”.

On to `CCN1C(=O)[C@@H](NC(=O)c2cccc(C(F)(F)F)c2)[C@@H](c2ccc(F)cc2)c2c(CN(C)C(=O)[C@H](C)Cl)nn(-c3ccccc3)c21` (stereo in doubt) [Compound I-30], for which the IC50 in experiment [2] (setting [3]) is 1000 to 3000 nM; in experiment [2] (setting [4]), greater than 3000 nM. At DCN1 protein, the “% Adduct Formation” value was “+ (MS Emax % adduct formation greater than or equal to 0.0 and less than or equal to 30.0)”.

Turning to `CCN1C(=O)[C@@H](NC(=O)c2cccc(C(F)(F)F)c2)[C@@H](c2ccc(F)cc2)c2c(CN(C)C(=O)[C@H](C)Cl)nn(-c3ccccc3)c21` (stereo in doubt) [Compound I-33], the IC50 in experiment [2] (setting [3]) and in experiment [2] (setting [5]) was 1000 to 3000 nM each time. The “% Adduct Formation” value at DCN1 protein is “+ (MS Emax % adduct formation greater than or equal to 0.0 and less than or equal to 30.0)”.

Take `CCN1C(=O)[C@@H](NC(=O)c2cccc(C(F)(F)F)c2)[C@@H](c2ccc(F)cc2)c2c(C(=O)N3CCCC[C@@H]3C#N)nn(-c3ccccc3)c21` [Compound I-121]: the IC50 in experiment [2] (setting [3]) and in experiment [2] (setting [4]) was no more than 200 nM each time. The “% Adduct Formation” value at DCN1 protein was “++ (MS Emax % adduct formation greater than 30.0 and less than or equal to 80.0)”.

In general, IC50 refers to the concentration that inhibits the measured activity by half.

(Values after patent US20250163057A1, “DCN-1 MODULATING COMPOUNDS AND METHODS OF USE THEREOF” (Cellarity, Inc., priority 2023, published 2025).)
